# From US9265774B2, “Methods, compounds and pharmaceutical compositions for treating anxiety and mood disorders” (New York University, priority 2011, dated 2016)
# Assays:
# [1] = system: Fos expression in the PVH; experiment: Fos expression in the PVH during the RFS model; type: in vivo, mice; conditions: dp6FNE 3 mg/kg i.p. 15 min prior to the 5th swim, with prazosin 0.2 mg/kg; swum animals, versus vehicle
# Description: (§1) In the RFS study, mice were subjected to 4 daily 15 min swims as described above and were injected i.p. with either vehicle or dp6FNE (3 mg/kg) 15 min prior to the 5th swim. In the TST study, animals were injected similarly before a 6 min test. […] The animals were anesthetized and perfused for immuno-histochemistry 70 min after the start of the swim or tail suspension. Brains were processed as described previously for double-label immunofluorescent Fos/tyrosine hydroxylase staining of all sections through the LC and for single-label Fos staining through the full PVH (Stone et al., Brain Res (2009) 1291: 21-31). […] In the tail suspended mice the analogous reductions were 53.5±7.2% (LC) and 36.7±3.1 (PVH). […] These findings thus indicate that a dose of […] dp6FNE that has preferential inhibitory effects on the LC during depression exists.
# [2] = system: locomotor behavior in an open field; experiment: Open field locomotor behavior after ivt. 6FNE or i.p. dp6FNE versus amphetamine; type: in vivo, mice; conditions: 6FNE ivt. or dp6FNE i.p.
# Description: 6FNE and dp6FNe were tested for their effects on motor activity by measuring locomotor behavior in an open field after either ivt. (6FNE) or i.p. injection (dp6fNE) in mice. These mice were compared to animals that were either non handled or received either a vehicle ivt injection or an i.p. injection of the stimulant, amphetamine (5 mg/kg). The results are shown in FIG. 6 and in (Stone, Lin Y, Sarfraz Y, and Quartermain D, 2011). […] Furthermore, the increase in activity after 6FNE was minor in comparison with the bona fide stimulant, amphetamine which produced a 10 fold increase. The small increase over the vehicle group therefore appears to be the result of a reduction of the stress caused by the handling and restraint for the ivt. injection which is in agreement with the reduced activation of brain stress circuits discussed above. This interpretation was supported by an examination of the time in the center or risky area of the field spent by the various groups. […] A slight reduction in motor behavior at the low doses (0.1-0.3 mg/kg) were, however, observed.
# Fos expression in the LC = Fos expression in the LC during the RFS model; type: in vivo, mice; conditions: dp6FNE 3 mg/kg i.p. 15 min prior to the 5th swim, with prazosin 0.2 mg/kg; swum animals, versus vehicle
# Description: as §1
# [3] = prazosin: at 0.2 mg/kg in mice; cited from earlier work
# [4] = system: home cage exploration in handling-stressed mice; experiment: Home cage activity after handling and injection stress; type: in vivo; conditions: i.p.; dp6FNE (1 mg/kg) in the presence of phentolamine; cirazoline (0.1 mg/kg)
# Description: FIG. 15 depicts the effect of acute i.p. dp6FNE (1 mg/kg) or cirazoline (0.1 mg/kg), (N=1), on home cage activity in terms of rearing and ambulation, Veh (N=12).
# 6FNE has a more rapid and/or greater antidepressant effect than either of these agonists because 6FNE is the only known selective α-agonist that has full efficacy at all brain α-adrenoceptors and 6FNE works within minutes (Stone, et al. 2011) whereas cirazoline was given to mice over several months prior to testing in one model (forced swim test) in the above experiment by Doze et al, 2009. […] (Stone, E A, Lin Y, Quartermain, D, Unpublished results)
# It is known that peripheral administration of α1-agonists without phentolamine impairs exploratory behavior in the open field (Yang, et al., J Pharmacol exp Ther 1990; 255: 1064-1070).
structure (smiles),measurement,setting,value
"CC(C)(C)C(=O)Oc1cc(F)c(C(O)CN)cc1OC(=O)C(C)(C)C (stereo not drawn) [dp6FNE, dipivalyl-6-fluoronorepinephrine]",reduction in gene expression (Fos) in the PVH,[1],13.0±20.1%
same,effect on motor activity in the open field,[2],did not produce any stimulation of motor behavior
same,time in the center of the field,[2],significant increase in the time in the center of the field
same,reduction in gene expression (Fos) in the LC,Fos expression in the LC,33.6±6.8
same,passage of the blood brain barrier,[3],does pass the blood brain barrier
same,behavioral inhibition in the home cage following handling and injection stress,[4],rescue of home cage exploration
